Assay results published in US20080242688A1, “Method 741” (ASTRAZENECA AB, priority 2007, published 2008).

Legend:
Rat QWBA study = type: in vivo; conditions: single oral dose
Description: AZD0328 is a low protein binding molecule across species including human (<15%) across the concentration range 21.6 to […] (0.1 to 100 μM). In most species, the binding was concentration and gender independent. […] [14C]-AZD0328-derived radioactivity was rapidly distributed to the organs and tissues with high levels of radioactivity associated with the contents of the GI tract and the major excretion organs, including kidney and liver. The radioactivity declined rapidly and by 168 h postdose radioactivity levels were not detectable in most tissues, with the exception of a few ocular tissues and nasal turbinates. […] Notable association of [^14C]-AZD0328-related radioactivity with the melanin-containing tissues was observed, with measurable radioactivity still present in the ocular tissues at 216 h postdose. [14C]-AZD0328-derived radioactivity crossed the placenta.

[1] = Mass balance of [14C]-AZD0328 in rats; type: in vivo, rat
Description: In the mass balance study conducted in fed rats, a Tmax of 0.5 h to 1 h was observed following single and multiple oral doses (solution). The bioavailability of AZD0328 (total radioactivity) in this study was >90%. […] Generally speaking, the elimination was complete within the 24-hour interval at the dose levels tested.
Pharmacokinetics and mass balance of [^14C]-AZD0328 were investigated in rats. The excretion of [^14C]-AZD0328-derived radioactivity in rats was mainly through the kidney. Over the course of the study, radioactivity recovered in urine and feces accounted for approximately 85% and 8%, respectively.

[2] = Pharmacological activity of metabolite
Description: Pyridinyl methylation of AZD0328 was a unique polar metabolite (M2) observed in dog hepatocytes. Other minor hydroxylation/oxidation and glucuronide conjugation products were detected in monkey, dog, rat, and guinea pig hepatocyte incubations and mini-pig hepatic microsome incubations. […] Analysis of plasma and urine samples from either orally or iv dosed rats confirmed N-oxide product of AZD0328 was a main product in the excretion and circulation. The percentage of AZD0328 N-oxide in the plasma from male rats was much higher than from females.

SMILES	time of maximum blood and plasma concentrations of radioactivity (Rat QWBA study)	radioactivity recovered in feces [1]	radioactivity recovered in urine [1]	pharmacological activity of metabolite [2]
c1cnc2c(c1)C[C@@]1(CN3CCC1CC3)O2 [[^14C]-AZD0328]	0.5 h	~8%	approximately 85%	–
[O-][N+]12CCC(CC1)C1(Cc3cccnc3O1)C2 (stereo not shown) [quinuclidinyl-N-oxide of AZD0328]	–	–	–	pharmacological inactive
